Measurements published in patent publication US20190307749A1, “Mitochondria-Division Inhibitor 1 Protects Against Amyloid-B Induced Mitochondrial Fragmentation and Synaptic Damage in Alzheimer's Disease” (Texas Tech University System, priority 2018, published 2019).

Tests used:
[1] = test system: N2a cells; assay: Lipid peroxidation assay (4-hydroxy-2-nonenol, HNE-His ELISA); assay type: cell-based, mouse; settings: Mdivi1 24 hrs or Aβ42 20 μM 6 hrs alone, vs untreated N2a cells
Procedure: (§1) Tissue culture: The N2a cells were grown for 3 days in a serum-free medium (1:1 mixture of DMEM and OptiMEM, plus penicillin and streptomycin [Invitrogen, Carlsbad, Calif., USA]) until the cells developed neuronal processes.
Lipid peroxidation assay: Lipid peroxidates are unstable indicators of oxidative stress in the brain. The final product of lipid peroxidation is 4-hydroxy-2-nonenol (HNE), which was measured in the N2a cell lysates prepared from cell pellets of control and treatment groups. The inventors used an HNE-His ELISA kit (Cell BioLabs, Inc., San Diego, Calif., USA), as described in Manczak and Reddy. Briefly, freshly prepared protein as added to a 96-well protein binding plate and incubated overnight at 4° C. The protein then washed 3 times with a buffer. After the last wash, the anti-HNE-His antibody was added to the protein in the wells, incubated for 2 hours at room temperature, and then washed again 3 times. The samples were then incubated with a secondary antibody conjugated with peroxidase for 2 hours at room temperature, followed by incubation with an enzyme substrate. Optical density was measured (at 450 nm) to quantify the level of HNE.

[2] = test system: N2a cells; assay: Cell viability (MTT assay); assay type: cell-based, mouse; settings: Mdivi1 24 hrs or Aβ42 20 μM 6 hrs alone, vs untreated N2a cells
Procedure: as §1
The N2a cells from all 5 groups (4 treatment groups and 1 control group) were harvested, and their cell pellets were collected and used for quantitative real-time RT-PCR, immunoblotting analysis of mitochondrial and synaptic proteins, and mitochondrial functional assays for hydrogen peroxide production, lipid peroxidation, cytochrome c oxidase activity, and MTT determination. Isolated mitochondria from N2a cells from all 5 groups were used to determine mitochondrial ATP as described in Reddy et al..

[3] = test system: N2a cells; assay: Cytochrome c oxidase activity; assay type: cell-based, mouse; settings: Mdivi1 24 hrs or Aβ42 20 μM 6 hrs alone, vs untreated N2a cells
Procedure: as §1
Cytochrome c oxidase activity: Cytochrome oxidase activity was measured in each of the 5 groups of N2a cells. Enzyme activity was assayed spectrophotometrically using a Sigma Kit (Sigma-Aldrich) following manufacturer's instructions. […] The decrease in absorbance at […] was recorded for 1-min reactions at 10-sec intervals. Cytochrome oxidase activity was measured according to the following formula: mU/mg total mitochondrial protein=(A/min sample−(A/min blank)×1.1 mg protein×21.84). The protein concentrations were determined following the BCA method.

[4] = test system: N2a cells; assay: H2O2 production (Amplex Red H2O2 assay); assay type: cell-based, mouse; settings: Mdivi1 24 hrs or Aβ42 20 μM 6 hrs alone, vs untreated N2a cells
Procedure: as §1
Mitochondrial functional assays. H2O2 production: Using an Amplex® Red H2O2 assay kit (Molecular Probes, Eugene, Oreg., USA), H2O2 production was measured using cell pellets, as described in Manczak and Reddy. Briefly, H2O2 production was measured in the protein lysates prepared from cell pellets of control untreated N2a cells and 4 treatment groups (FIG. 1). A BCA protein assay kit (Pierce Biotechnology) was used to estimate protein concentration. The reaction mixture contained mitochondrial proteins (μg/μl), Amplex Red reagents (50 μM), horseradish peroxidase (0.1 U/ml), and a reaction buffer (1×). The mixture was incubated at room temperature for 30 minutes, followed by spectrophotometer readings of fluorescence (570 nm). Finally, H2O2 production was determined, using a standard curve equation expressed in nmol/μg mitochondrial protein.

[5] = test system: mouse neuroblastoma (N2a) cells; assay: Immunoblotting analysis of mitochondrial dynamics, biogenesis and synaptic proteins; assay type: cell-based; settings: Mdivi1 24 hrs or Aβ42 20 μM 6 hrs alone, vs untreated N2a cells
Procedure: as §1
Twenty g of protein was resolved from each group of cells on a 4-12% Nu-PAGE gel (Invitrogen). The resolved proteins were transferred to […] (Novax Inc., San Diego, Calif., USA) and were then incubated for 1 hour at room temperature with a blocking buffer (5% dry milk dissolved in a TBST buffer). The PVDF membranes were incubated overnight with primary antibodies (see Table 2) and washed 3 times with a TBST buffer at 10-minute intervals. They were then incubated for 2 hours with appropriate secondary antibodies, followed by 3 additional washes at 10-minute intervals. Mitochondrial and synaptic proteins were detected with cheminilumniscence reagents (Pierce Biotechnology, Rockford, Ill., USA), and the bands from immunoblots were quantified on a Kodak scanner, following manufacturer's instructions (ID Image Analysis Software, Kodak Digital Science, Kennesaw, Ga., USA), and the gel images were analyzed from gel images captured with a Kodak digital science CD camera. The lanes were marked to define the positions and specific regions of the bands. An ID fine-band command was used to locate and to scan the bands in each lane and to record the readings.

[6] = test system: N2a cell mitochondria; assay: Mitochondrial ATP levels (luciferase bioluminescence); assay type: cell-based, mouse; settings: N2a cells; Mdivi1 24 hrs or Aβ42 20 μM 6 hrs alone; vs untreated N2a cells
Procedure: as §1
ATP levels: ATP levels were measured in N2a cell mitochondria from the treatment groups using an ATP determination kit (Molecular Probes). A bioluminescence assay was used, based on the reaction of ATP with recombinant firefly luciferase and its substract luciferin. Luciferase catalyzes the formation of light from ATP and luciferin. It is the emitted light that is linearly related to the concentration of ATP, which is measured with a luminometer. ATP levels were measured from mitochondrial pellets using a standard curve method.

[7] = test system: mouse neuroblastoma (N2a) cells; assay: Quantitative real-time RT-PCR: mRNA expression of mitochondrial dynamics, biogenesis and synaptic genes; assay type: cell-based; settings: N2a cells + Aβ42; Mdivi1 given before (preventive) vs after (curative) Aβ42; mRNA and protein data
Procedure: as §1
Quantitative real-time RT-PCR: Using the reagent TriZol (Invitrogen), total RNA was isolated from cell pellets from the 5 N2a cell groups (FIG. 1). Using primer express software (Applied Biosystems, Carlsbad, Calif., USA), the inventors designed the oligonucleotide primers for the housekeeping genes 3-actin, GAPDH, mitochondrial structural genes, fission genes (Drp1, Fis1), fusion genes (MFN1, MFN2, Opa1), biogenesis genes (PGC1c, Nrf1, Nrf2, TFAM), and synaptic genes (synaptophysin and PSD95) (see Table 1 for primer sequences and amplicon sizes). Using SYBR-Green chemistry-based quantitative real-time RT-PCR, mRNA expressions of the above-mentioned genes were measured, as described by Manczak and Reddy.
The mRNA transcript level was normalized against β-actin and the GAPDH at each dilution. The standard curve was the normalized mRNA transcript level, plotted against the log-value of the input cDNA concentration at each dilution. To compare β-actin, GAPDH, and relative quantification was performed according to the (CT) method (Applied Biosystems). […] The ΔCT-value was obtained by subtracting the average β-actin CT value from the average CT-value of the synaptic mitochondrial ETC genes and the mitochondrial structural genes. The ΔCT of untreated cells was used as the calibrator. The fold change was calculated according to the formula 2^-(Δ ΔCT), where ΔΔCT is the difference between ΔCT and the ΔCT calibrator value. To determine the statistical significance of mRNA expression, the CT value differences between the untreated cells and other experimental groups of cells were used in relation to β-actin normalization. Statistical significance was calculated, using one-way ANOVA.

Molecule | Lipid peroxidation levels (4-hydroxy-2-nonenol) [1] | Cell viability [2] | Cytochrome oxidase activity [3] | H2O2 levels [4] | Drp1 protein level [5] | Fis1 protein level [5] | Mfn1 protein level [5] | Mfn2 protein level [5] | Nrf1 protein level [5] | Nrf2 protein level [5] | Opa1 protein level [5] | PGC1α protein level [5] | PSD95 protein level [5] | Synaptophysin protein level [5] | PSD95 protein level ([5]; listed as Aβ) | Synaptophysin protein level ([5]; listed as Aβ) | Mitochondrial ATP levels [6] | Protective effects against Aβ42, pre-treated vs post-treated cells [7]
Aβ42: Aβ42 peptide purchased from Anaspec, used to induce mitochondrial and synaptic toxicity in N2a cells | Significantly higher | Significantly lower | Significantly lower | significantly increased | significantly higher | significantly higher | significantly lower | significantly lower | Significantly lower | Significantly lower | significantly lower | Significantly lower | significantly lower | significantly lower | significantly higher | significantly higher | Significantly lower | 
O=c1c2ccccc2[nH]c(=S)n1-c1cc(O)c(Cl)cc1Cl [water soluble Mdivi1, 3-(2,4-dichloro-5-hydroxyphenyl)-2-thioxo-2,3-dihydroquinazolin-4(1H)-one] |  |  |  |  |  |  |  |  |  |  |  |  |  |  |  |  |  | stronger in pre-treated cells than post-treated cells
